How the values were obtained:
GM3NPhAc = test: ELISA analysis of GM3NPhAc-specific immune responses in immunized mice; type: in vivo
Description: FIG. 1 relates to the ELISA analysis of GM3NPhAc-specific immune responses in mice. For ELISA assays, GM3NPhAc-HSA was used as the capture antigen. Goat anti-mouse kappa antibodies were used to detect antibodies bond to the capture antigen. Titers are determined by linear regression analysis and defined as the highest dilution yielding an optical density of 0.2. (a) GM3NPhAc-specific total antibody contents in day −1, 27 and 38 mice sera. Mice were immunized with 1N containing 15 μg of GM3NPhAc. Each line represents the antibody level in serum pooled from a group of five mice. (b) Comparison of GM3NPhAc-specific total antibody titers in day 38 mice sera. Mice were immunized with 1N containing 15, 6 or 3 μg of GM3NPhAc. (c) Comparison of immunological results of conjugates 1, 2 and T-1. 1N: conjugate 1 alone; 1A: conjugate 1+an external adjuvant; 2N: conjugate 2 alone; 2A: conjugate 2+an external adjuvant; T-1N: conjugate T-1 alone. Each dot represents the GM3NPhAc-specific immune response of individual mouse and the black lines represent the average antibody level of a group of five mice.
FIG. 2 relates to the titer analysis of different isotypes of GM3NPhAc-specific antibodies induced by 1N (left) and T-1N (right). […] Titers are determined by linear regression analysis and defined as the highest dilution yielding an optical density of 0.2. […]

3T3 A31 cells = test: In vitro glycoengineered expression of GM3NPhAc on cell surface, flow cytometry with mAb 2H3; type: cell-based, murine
Description: (§1) FIG. 3 depicts histograms of the glycoengineering of B16F0 cells (a), 3T3 A31 cells (b) and SKMEL-28 cells (c) using ManNPhAc which induces expression of GM3NPhAc on the cell surface. Cells were cultured with 0, 0.01, 0.02 and 0.04 mM of ManNPhAc, stained with mAb 2H3, labeled with FITC-labeled goat anti-mouse kappa antibody, and analyzed by flow cytometry. Data are presented as raw histograms derived from 20,000 events.
(§2) FIG. 4 depicts histograms of the glycoengineering of B16F0 (a) and 3T3 A31 (b) using NeuNPhAc induces expression of GM3NPhAc on the cell surface. Cells were cultured with 0, 0.01, 0.02 and 0.04 mM of NeuNPhAc, stained with mAb 2H3, labeled with FITC-labeled goat anti-mouse kappa antibody, and analyzed by flow cytometry. Data are presented as raw histograms derived from 10,000 events.
(§3) B16F0, 3T3 A31 and SKMEL-28 cells were incubated with 0.01, 0.02 and 0.04 mM of ManNPhAc or NeuNPhAc, harvested at different time, washed with FACS buffer (phosphate-buffered saline (PBS) containing 1% bovine serum albumin), and incubated on ice for 15 minutes with 100 μL of normal mouse serum (NMS) diluted 1:100 in FACS buffer. Cells were washed 3 times with FACS buffer, and incubated for 30 minutes on ice with 100 μL of anti-GM3NPhAc mAb 2H3 (cell culture supernatant) diluted 1:10 in FACS buffer. Cells were washed again (3 times) and incubated for 30 minutes on ice with 1 μg of FITC-conjugated goat anti-mouse kappa antibody diluted in FACS buffer (100 μL). After washing 3 times with FACS buffer, the expression of GM3NPhAc on cell surfaces was evaluated on a Becton Dickenson FACScan flow cytometer. Data are presented as raw histograms derived from 20000 events.

B16F0 cells = test: as above; type: cell-based, murine
Description: as §1, §2, §3

SKMEL-28 cells = test: as above; type: cell-based, human
Description: as §1, §3

## CCC(=O)OC1C(NC(=O)C[C@@H](CC)OC(=O)CC)[C@H](OCCNC(=O)CCC(=O)NCc2cn(CCOC3OC(CO)[C@@H](O[C@@H]4OC(CO)[C@H](O)C(O[C@]5(C(=O)O)CC(O)[C@@H](NC(=O)Cc6ccccc6)C([C@H](O)[C@H](O)CO)O5)C4O)C(O)C3O)nn2)OC(CO[C@@H]2OC(CO)[C@@H](OP(=O)(O)O)C(OC(=O)CC)C2NC(=O)C[C@@H](CC)OC(=O)CC)[C@H]1O (stereo partly drawn) [Compound T-1]
GM3NPhAc; day 38 mice sera, conjugate alone
  Isotypes of GM3NPhAc-specific antibodies (IgM, IgG1, IgG2a, IgG3): not only GM3NPhAc-specific IgM and IgG1 antibodies, but also much higher titers of IgG3 antibody
GM3NPhAc; liposome of conjugate alone, no external adjuvant (groups 1N, 2N, T-1N), 15 μg of GM3NPhAc, s.c. day 0, 14, 21, 28
  GM3NPhAc-specific total antibody immune response: comparable to that induced by 1

## [2H]C(C(=O)N[C@@H]1C(O)O[C@H](CO)[C@@H](O)[C@@H]1O)c1ccccc1 (stereo partly drawn) [ManNPhAc]
3T3 A31 cells; 0.01 mM
  Cells showing labelling of GM3NPhAc: no 3T3 A31 cell showing labelling of GM3NPhAc
  Labelling for GM3NPhAc compared to control group: no substantial labelling
3T3 A31 cells; 0.02 mM
  Labelling for GM3NPhAc compared to control group: no substantial labelling
3T3 A31 cells; 0.04 mM
  Labelling for GM3NPhAc compared to control group: started to show labelling
B16F0 cells; 0.01 mM
  Cells showing labelling of GM3NPhAc: only partial B16F0 cell
B16F0 cells; 0.01 mM, 72 hours
  Expression of GM3NPhAc on cell surface: significant expression of GM3NPhAc
B16F0 cells; 0.01, 0.02, 0.04 mM, 72 hours
  Concentration dependence of GM3NPhAc expression: dependent on ManNPhAc concentrations
SKMEL-28 cells; 0.01 mM, 96 hours
  Cells showing significant GM3NPhAc labelling above the control group: 100%
SKMEL-28 cells; 0.02 mM, 96 hours
  Expression of GM3NPhAc on cell surface: further increased
SKMEL-28 cells; 0.04 mM, 96 hours
  Expression of GM3NPhAc on cell surface: further increased
SKMEL-28 cells; data not shown
  Concentration at which a plateau level of GM3NPhAc expression was reached: ≥ 0.04 mM

## O=C(Cc1ccccc1)N[C@H]1[C@H]([C@H](O)[C@H](O)CO)OC(O)(C(=O)O)C[C@@H]1O (stereo partly drawn) [NeuNPhAc]
3T3 A31 cells; 0.01, 0.02, 0.04 mM
  Utilization to express GM3NPhAc on cell surface: much more efficiently to express GM3NPhAc, even better than B16F0 cancer cells
B16F0 cells; 72 hours, same concentrations (0.01, 0.02, 0.04 mM)
  Expression of GM3NPhAc on cell surface relative to ManNPhAc: more significant expression of GM3NPhAc than that incubated with ManNPhAc

Reference: patent US9259476B2, “Monophosphorylated lipid A derivatives” (WAYNE STATE UNIVERSITY, priority 2009, dated 2016)
